Patent publication US20210121438A1, “METHODS FOR TREATING OR PREVENTING CONFORMATION DISEASES AND METHODS FOR DRUG SCREENING” (GARAGE BRAIN SCIENCE CO., LTD, priority 2018, published 2021)
Where a SMILES comes first, the peptide text is derived from it. The star is where a group is joined. Cbz = O=C(OCc1ccccc1)*

Key:
Format in all cases: cell-based
[1] = tested on: p53 aggregates in 293T cells; experiment: p53 aggregates in 293T cells / p53 strains (immunofluorescence with p53 antibody)
Method: Immunohistochemistry: Fluorescence staining was performed as described previously (Wang et al., 2012). Cells were transfected with or without plasmids or siRNAs and grown for 24 to 48 hr. Cells were fixed with 3.7% paraformaldehyde in PBS at RT for 15 min and then permeabilized with 0.1% Triton X-100. The fixed cells were incubated with primary antibodies at RT for 2 hr followed by incubation with Cy2- or Cy3-labeled secondary antibodies (Molecular Probes). Slides were mounted using Vectashield DAPI H-1200 (Vector). Cellular fluorescence images were collected using an LSM710 META laser-scanning confocal microscope (Zeiss).
We observed a striking degree of heterogeneity among p53 aggregates in the cytosol of 293T cells by immunofluorescence with a p53 antibody, including long fibers (5-10 μm), short fibers (1.6-3.2 μm) and punctate aggregates (0.5-1 μm in diameter) (FIG. 16a, arrows). The length of the p53 fibers and p53 aggregates were analyzed (FIG. 16b). […] To determine whether these heterogeneous p53 amyloid patterns are inherited or are random conversions, we subcultured and isolated single colonies from heterogeneous pools of cells. […] We obtained four phenotypes shown in FIG. 16a, including long and short fibers, puncta, and diffuse nuclear staining, and these phenotypes were stably propagated (FIG. 16e). We termed these p53 phenotypes of the isolated strains as follows: p53 [L] (Long fibers), p53 [S] (Short fibers), p53 [P] (Puncta) and p53-NVA (No Visible Aggregates).
Additionally, we treated 293T cells with an Aβ amyloid disassembling agent, baicalein, following immunofluorescence staining with anti-p53 antibodies.

[2] = tested on: GFP-TDP-43-IIPLD inclusion-expressing 293T cells; experiment: TDP-43-IIPLD misfolded aggregates in transfected 293T cells (microscopy)
Method: Cell Culture and Drug Treatment: 293T cells were used throughout the experimental studies. 293T cells were grown in Dulbecco's modified Eagle's medium (DMEM)/F12, which was supplemented with 10% fetal bovine serum, 1% penicillin/streptomycin and 1% L-glutamate. Primary cultures of rat hippocampal neurons were prepared from embryonic day 17 rat embryos as previously described by (Wang et al, TDP-43, the signature protein of FTLD-U, is a neuronal activity-responsive factor. J. Neurochem. 105, 79T-806 (2008)). All procedures for handling the rat were carried out in accordance with the guidelines approved by the Institutional Animal Care and Utilization Committee, Academia Sinica. Hippocampal cells were plated on poly-1-lysine-coated coverslides at low density (10,000 cells per cm2) and cultured in the neurobasal medium/B27 (Invitrogen). The 293T cells were transfected using the calcium phosphate protocol according to the manufacturer's instructions and as previously described by Wang et al. (Wang et al., ProcNatlAcadSci USA. 99, 13583-13588 (2002). All of the plasmid constructs were described in Wang et al., Nature Communication, 2012). 293T cells (1×10^5) were seeded in each well of a six-well plate and incubated overnight in a 37° C. incubator with 5% CO2. To determine the effects of off-pathway stabilizers on the reduction of pathological-like aggregates, the cells were treated with baicalein and EGCG for 12, 24, or 48 h with the indicated concentrations (25 or 50 μM).
GFP-TDP-43 pathological-like (GFP-TDP-43-IIPLD) inclusion-expressing 293T cells were treated with or without 50 μM baicalein for 12 h following microscopic analysis and Western blotting validation. […] (FIG. 2c).

[3] = tested on: TDP-43-mediated CFTR exon 9 skipping; experiment: Alternative splicing assay (in vivo splicing, CFTR minigene); conditions: EGCG
Method: Alternative Splicing Assay: TDP-43-mediated CFTR exon 9 skipping assays were performed as previously described. Briefly, cells were cotransfected with TDP-43 plasmid, hCF-(TG)13(T)5 minigenes and the indicated plasmids, including VCP/p97 wt, VCP/p97 QQ, HSPB1, lamin A or progeria, or HSPB1 siRNA. Total RNA of transfectanted cells was isolated by TRIzol reagent (Invitrogen), and RT-PCR was carried out by Superscript III (Invitrogen) using specific primers to amplify exons 8-10 of CFTR according to the manufacturer's protocol. The relative amounts of cDNA were validated on 1.3% agarose gels. […]

TDP-43 polymers = molecular target: T1, TDP-43 polymers (Homo sapiens, UniProt Q13148); experiment: Western blotting of TDP-43 polymers in nuclear, cytosolic and urea fractions; conditions: EGCG-treated cells
T1 construct: endogenous in cells; host or cells: 293T
T1 sequence (Q13148 whole entry): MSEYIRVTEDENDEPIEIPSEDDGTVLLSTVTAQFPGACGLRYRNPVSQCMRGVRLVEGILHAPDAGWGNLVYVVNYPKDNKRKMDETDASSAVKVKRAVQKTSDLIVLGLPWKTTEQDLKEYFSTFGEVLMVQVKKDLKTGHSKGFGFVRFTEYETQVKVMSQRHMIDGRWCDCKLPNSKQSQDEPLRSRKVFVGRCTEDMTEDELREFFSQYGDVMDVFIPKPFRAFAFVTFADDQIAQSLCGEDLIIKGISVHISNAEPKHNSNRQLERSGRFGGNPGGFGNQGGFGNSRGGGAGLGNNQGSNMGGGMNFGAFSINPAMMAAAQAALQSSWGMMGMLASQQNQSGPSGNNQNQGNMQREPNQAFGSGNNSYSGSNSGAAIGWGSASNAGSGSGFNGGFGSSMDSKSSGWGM
Method: Solubility Assay of TDP-43 and p53: Cells with or without transfection of TDP-43-FL or TDP-43-Q303P were lysed with RIPA buffer (50 mM Tris, 150 mM NaCl, 1 mM EDTA, 1% NP-40, pH 7.4), and the lysate was further fractionated by centrifugation at 16,000 g for 5 min at 4° C. The insoluble pellets were then dissolved in 8 M urea/50 mM Tris (pH 8.0). The proteins were identified by Western blotting using a polyclonal TDP-43 antibody or a monoclonal p53 antibody.
TDP-43 proteinopathies in FTLD/ALS with the VCP/97 mutation R155H have been characterized. The VCP/97 mutation R155H alters the functions of VCP/97, redistributes TDP-43 to the cytosol, and leads to form-insoluble aggregates of TDP-43.

four p53 strains = experiment: Cell viability of the four p53 strains under stress (MTT assay)
Text: Our clonally expanded system provided an excellent cellular model to precisely investigate the oncogenicity of strain-specific p53 amyloid conformations in vivo. We analyzed cell growth of the four p53 amyloid strains by examining cell cycle flow and counting doubling time (FIGS. 17a and 17b). […] In contrast to the toxic amyloids observed in neurodegenerative contexts, p53 amyloids appear to promote cell growth. Additionally, to assess the stress response, the four cell strains were challenged with spermidine and H2O2 (FIGS. 17c and 17d). Cell viability was impaired under all stress conditions. […] To further identify key pathophysiology pathways involved in tumorigenesis of p53 aggregates' gain-of-function, we performed a serial screen by western blotting and compared the expression of cancer-related proteins in the four strains. […] Additionally, a group of epigenetic regulators altered their expression in present of p53 aggregates. […] Together with the horizontal transmissibility shown in FIG. 16, the three endogenous p53 aggregates were able to switch into malignant cancer cells including activating EMT, increasing cancer stemness, and dramatically altering epigenetic regulators, and the strain-specific p53 amyloids can propagate oncogenic inheritance via a protein-based mechanism.

`CC(C)C[C@@H](C=O)NC(=O)[C@H](CC(C)C)NC(=O)[C@H](CC(C)C)NC(=O)OCc1ccccc1` [MG132] (Cbz-Leu-Leu-Leu-aldehyde) was tested, and the “form of p53 fibers” value ([1]; 293T cells, MG132) was “converted the three types of p53 fibers into irregular inclusions” and the p53 aggregates ([1]; 293T cells, MG132) was “significantly increased p53 aggregates”.
For `O=C(O[C@@H]1Cc2c(O)cc(O)cc2O[C@@H]1c1cc(O)c(O)c(O)c1)c1cc(O)c(O)c(O)c1` [EGCG], the “TDP-43-IIPLD aggregates, statistical analysis of dose dependence” value [2] was “disassembled the formed TDP-43 misfolded aggregates in a dose-dependent manner”, the “assembly of TDP-43-IIPLD proteinaceous nucleating particles” value ([2]; 50 μM) was “reduce TDP-43 proteinaceous nucleating particles” and the “correction of TDP-43 dysfunction on mRNA processing” value [3] was “insufficient to correct TDP-43 dysfunction on mRNA processing”. For the same compound, the TDP-43 species (TDP-43 polymers) was “increased the level of the 130 kD TDP-43 instead of the high-order TDP-43 polymers”.
For `OO` [H2O2], the p53 aggregate formation ([1]; H2O2 treatment) was “induced p53 aggregate formation” and the cell viability (four p53 strains; four p53 strains challenged with H2O2) was “impaired”.
For `NCCCCNCCCN` [spermidine], the cell viability (four p53 strains; four p53 strains challenged with spermidine) was “impaired”.
